# Measured values reported in US20080076812A1 (priority 2006, published 2008).
# Where “and” joins values, the source holds several entries; their conditions need not be identical. Equal values may be shown once.
# Assay: Drug-excipient compatibility study
# Conditions: binary drug/excipient mixture, 40° C./75% RH open bottle; sodium salt
# Source text: This study was designed to evaluate the effects of various diluents, binders, disintegrants, lubricants, buffering agents, and antioxidants on the stability of the drug substance.
structure (smiles),measurement,value
"Cc1cc2c(cc1CC(=O)c1sccc1S(=O)(=O)[N-]c1onc(C)c1Cl)OCO2.[Na+] [Sitaxsentan Sodium, N-(4-chloro-3-methyl-5-isoxazolyl)-2-[2-methyl-4,5-(methylenedioxy)phenylacetyl]-thiophene-3-sulfonamide, sodium salt]",Assay (%) T = 2 Weeks,98.0%
same,Total Related Substanes (%) T = 2 Weeks,0.19% and 0.18%
same,Total Related Substanes (%) T = 4 Weeks,0.24% and 0.12%
